From patent publication US20250122295A1, “METHOD OF TREATMENT OF PHILADELPHIA CHROMOSOME POSITIVE LEUKEMIA” (CSL LIMITED, priority 2014, published 2025)

Test system: GM-CSF-induced STAT5 phosphorylation in KU812 cells
Conditions: dasatinib alone 100 nM, GM-CSF 4 ng/ml for 10 minutes, FIG. 6
Procedure: KU812 cells (a myeloid precursor cell line established from the peripheral blood of a patient in blast crisis of CML) were cultured with 100 nM dasatinib with or without Bion-1 (100 nM) and constitutively stimulated with GM-CSF (4 ng/ml) for 10 minutes.

## Cc1nc(Nc2ncc(C(=O)Nc3c(C)cccc3Cl)s2)cc(N2CCN(CCO)CC2)n1 [dasatinib]
  inhibition of p-STAT5 phosphorylation in the presence of GM-CSF: does not inhibit
